Laboratory results from article PMC4020173 (Bioorganic & medicinal chemistry, 2014).
Entries after “also recorded” stand apart in the source; their conditions may differ.

Legend:
[1] = tested on: MDA-MB-436 human breast cancer xenograft tumors; experiment: MicroPET imaging with [^18F]12 in MDA-MB-436 tumor-bearing mice; format: in vivo; settings: MDA-MB-436 tumors in mice; olaparib 50 mg/kg i.p. or 12 1 mg/kg i.p., 20 min prior to tracer injection
MDA-MB-231 tumors = experiment: MicroPET imaging with [^18F]12 in MDA-MB-231 tumor-bearing mice; format: in vivo; settings: MDA-MB-231 tumor in mice; olaparib i.p. 50 mg/kg 20 min pretreatment; time-radioactivity curves

O=C1NCCn2c(-c3ccc(OCCF)cc3)nc3cccc1c32 [Compound 12, 5,6-Dihydro-2-(4-(2-fluoroethoxy)phenyl)-imidazo[4,5,1-jk][1,4]benzodiazepin-7(4H)-ones]
Effect of pretreatment on [^18F]12 uptake in tumor (blocking) [1]: decreased [^18F]12 uptake in the tumors to the background tissue activity levels; also recorded: blocked

O=C(c1cc(Cc2n[nH]c(=O)c3ccccc23)ccc1F)N1CCN(C(=O)C2CC2)CC1 [olaparib]
Effect of pretreatment on [^18F]12 uptake in tumor (blocking) [1]: blocked; also recorded: decreased [^18F]12 uptake in the tumors to the background tissue activity levels | Effect of pretreatment on [^18F]12 uptake in tumor (blocking) (MDA-MB-231 tumors): decreased [^18F]12 uptake
